According to ChEMBL document CHEMBL1156213, “Imidazo[2,1-b]thiazoles: multitargeted inhibitors of both the insulin-like growth factor receptor and members of the epidermal growth factor family of receptor tyrosine kinases” (Bioorg Med Chem Lett, 2010):

How the values were obtained:
[1] = target: Epidermal growth factor receptor (Homo sapiens, UniProt P00533, L858R)
[2] = target: T1, Insulin-like growth factor 1 receptor (Homo sapiens, UniProt P08069); assay: Inhibition of human recombinant IGF1R expressed in Sf21 cells by time resolved fluorescence assay
[3] = target: T2, Receptor tyrosine-protein kinase erbB-2 (Homo sapiens, UniProt P04626); assay: Inhibition of ErbB2 by time resolved fluorescence assay
[4] = target: Epidermal growth factor receptor (Homo sapiens, UniProt P00533)
Description: Inhibition of EGFR intracellular phosphorylation in human A431 cells by ELISA

[5] = target: T2, Receptor tyrosine-protein kinase erbB-2; assay: Inhibition of ErbB2 intracellular phosphorylation in human N87 cells by ELISA
[6] = target: T1, Insulin-like growth factor 1 receptor; assay: Inhibition of IGF1R intracellular phosphorylation in human A431 cells by ELISA; type: cell-based, A-431
[7] = Inhibition of CK2
[8] = Inhibition of MAPKAPK
[9] = target: T3, Serine/threonine-protein kinase Sgk1 (Homo sapiens, UniProt O00141); assay: Inhibition of SGK
T3 sequence (O00141 whole entry): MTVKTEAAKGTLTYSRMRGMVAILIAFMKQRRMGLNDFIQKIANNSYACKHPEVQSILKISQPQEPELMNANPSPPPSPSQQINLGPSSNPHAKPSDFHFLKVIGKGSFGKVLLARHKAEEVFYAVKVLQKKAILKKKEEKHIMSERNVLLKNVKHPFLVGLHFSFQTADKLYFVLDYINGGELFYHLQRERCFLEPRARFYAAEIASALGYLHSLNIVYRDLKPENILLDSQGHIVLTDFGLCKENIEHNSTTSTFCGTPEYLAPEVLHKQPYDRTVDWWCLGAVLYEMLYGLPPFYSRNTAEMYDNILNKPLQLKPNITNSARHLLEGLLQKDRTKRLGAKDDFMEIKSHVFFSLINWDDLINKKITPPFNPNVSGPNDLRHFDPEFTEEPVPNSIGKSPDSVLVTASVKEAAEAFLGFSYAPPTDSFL

[10] = Inhibition of P70S6K
[11] = Inhibition of FGFR
[12] = target: Protein kinase C eta type (Homo sapiens, UniProt P24723); assay: Inhibition of PKCeta
[13] = Inhibition of PKA

Epidermal growth factor receptor (Homo sapiens, UniProt P00533, L858R), sequence (P00533 25-1210 L858R limits assumed): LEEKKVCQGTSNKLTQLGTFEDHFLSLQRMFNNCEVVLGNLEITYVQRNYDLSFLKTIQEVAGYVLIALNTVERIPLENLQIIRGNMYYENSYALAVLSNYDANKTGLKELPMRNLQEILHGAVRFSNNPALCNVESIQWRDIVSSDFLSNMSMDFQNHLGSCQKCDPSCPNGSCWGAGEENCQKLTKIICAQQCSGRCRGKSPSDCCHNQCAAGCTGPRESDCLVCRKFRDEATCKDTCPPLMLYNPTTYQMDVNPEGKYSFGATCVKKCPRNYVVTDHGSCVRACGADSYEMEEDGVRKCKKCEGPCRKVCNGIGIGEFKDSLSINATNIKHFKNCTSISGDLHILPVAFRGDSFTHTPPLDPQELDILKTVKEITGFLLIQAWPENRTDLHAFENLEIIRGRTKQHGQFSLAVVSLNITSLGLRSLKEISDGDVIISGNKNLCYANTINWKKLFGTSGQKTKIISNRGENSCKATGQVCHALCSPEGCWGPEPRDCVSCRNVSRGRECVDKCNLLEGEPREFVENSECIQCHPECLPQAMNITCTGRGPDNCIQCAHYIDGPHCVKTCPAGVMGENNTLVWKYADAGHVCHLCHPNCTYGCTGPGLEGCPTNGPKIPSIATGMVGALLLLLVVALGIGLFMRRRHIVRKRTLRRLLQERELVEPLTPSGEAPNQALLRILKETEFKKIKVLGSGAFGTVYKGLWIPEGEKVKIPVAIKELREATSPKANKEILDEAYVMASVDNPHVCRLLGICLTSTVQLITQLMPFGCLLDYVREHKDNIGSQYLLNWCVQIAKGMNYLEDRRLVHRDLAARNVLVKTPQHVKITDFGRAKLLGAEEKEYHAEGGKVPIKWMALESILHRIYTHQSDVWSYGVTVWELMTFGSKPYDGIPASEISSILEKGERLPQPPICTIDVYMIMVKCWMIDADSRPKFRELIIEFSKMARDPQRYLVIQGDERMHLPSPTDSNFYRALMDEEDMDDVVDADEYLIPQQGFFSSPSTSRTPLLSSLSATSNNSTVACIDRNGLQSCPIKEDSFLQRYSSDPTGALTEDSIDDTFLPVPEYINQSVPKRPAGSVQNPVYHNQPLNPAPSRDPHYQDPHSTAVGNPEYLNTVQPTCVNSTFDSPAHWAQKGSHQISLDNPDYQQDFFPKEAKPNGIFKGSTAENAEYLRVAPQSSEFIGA
T2 sequence (P04626 whole entry): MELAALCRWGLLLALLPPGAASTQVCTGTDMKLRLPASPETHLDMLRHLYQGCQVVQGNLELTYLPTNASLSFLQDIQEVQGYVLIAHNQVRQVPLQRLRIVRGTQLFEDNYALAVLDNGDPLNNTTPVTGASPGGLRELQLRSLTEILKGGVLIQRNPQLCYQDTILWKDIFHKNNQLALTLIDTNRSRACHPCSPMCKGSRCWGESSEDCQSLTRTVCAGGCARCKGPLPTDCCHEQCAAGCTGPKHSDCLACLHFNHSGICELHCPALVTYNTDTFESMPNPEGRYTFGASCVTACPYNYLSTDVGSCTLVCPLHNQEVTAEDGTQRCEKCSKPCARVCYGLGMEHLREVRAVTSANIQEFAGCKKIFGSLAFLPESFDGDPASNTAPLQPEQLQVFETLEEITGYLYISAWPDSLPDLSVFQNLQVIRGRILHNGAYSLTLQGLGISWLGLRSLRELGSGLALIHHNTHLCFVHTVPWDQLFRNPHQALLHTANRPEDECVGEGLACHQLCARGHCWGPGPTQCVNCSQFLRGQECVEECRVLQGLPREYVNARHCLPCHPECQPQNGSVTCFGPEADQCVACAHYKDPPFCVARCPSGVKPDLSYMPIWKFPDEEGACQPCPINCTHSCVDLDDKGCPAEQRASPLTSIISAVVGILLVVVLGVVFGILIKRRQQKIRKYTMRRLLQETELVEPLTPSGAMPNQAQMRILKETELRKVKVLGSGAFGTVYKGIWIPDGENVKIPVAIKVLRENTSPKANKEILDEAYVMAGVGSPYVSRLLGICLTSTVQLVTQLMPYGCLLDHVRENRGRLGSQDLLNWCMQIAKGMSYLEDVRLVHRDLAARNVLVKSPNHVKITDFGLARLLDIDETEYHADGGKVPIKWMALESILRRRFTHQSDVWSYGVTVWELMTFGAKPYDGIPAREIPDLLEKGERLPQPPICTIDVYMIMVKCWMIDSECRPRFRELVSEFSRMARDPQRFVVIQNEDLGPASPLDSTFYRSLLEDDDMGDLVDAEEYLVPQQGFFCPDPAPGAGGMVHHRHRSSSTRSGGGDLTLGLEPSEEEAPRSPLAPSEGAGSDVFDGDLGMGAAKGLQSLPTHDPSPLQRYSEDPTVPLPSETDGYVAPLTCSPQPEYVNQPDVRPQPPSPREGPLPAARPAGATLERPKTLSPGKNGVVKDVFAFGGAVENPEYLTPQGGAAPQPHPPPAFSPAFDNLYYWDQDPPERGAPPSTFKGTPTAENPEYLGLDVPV
Epidermal growth factor receptor (Homo sapiens, UniProt P00533), sequence (P00533 whole entry): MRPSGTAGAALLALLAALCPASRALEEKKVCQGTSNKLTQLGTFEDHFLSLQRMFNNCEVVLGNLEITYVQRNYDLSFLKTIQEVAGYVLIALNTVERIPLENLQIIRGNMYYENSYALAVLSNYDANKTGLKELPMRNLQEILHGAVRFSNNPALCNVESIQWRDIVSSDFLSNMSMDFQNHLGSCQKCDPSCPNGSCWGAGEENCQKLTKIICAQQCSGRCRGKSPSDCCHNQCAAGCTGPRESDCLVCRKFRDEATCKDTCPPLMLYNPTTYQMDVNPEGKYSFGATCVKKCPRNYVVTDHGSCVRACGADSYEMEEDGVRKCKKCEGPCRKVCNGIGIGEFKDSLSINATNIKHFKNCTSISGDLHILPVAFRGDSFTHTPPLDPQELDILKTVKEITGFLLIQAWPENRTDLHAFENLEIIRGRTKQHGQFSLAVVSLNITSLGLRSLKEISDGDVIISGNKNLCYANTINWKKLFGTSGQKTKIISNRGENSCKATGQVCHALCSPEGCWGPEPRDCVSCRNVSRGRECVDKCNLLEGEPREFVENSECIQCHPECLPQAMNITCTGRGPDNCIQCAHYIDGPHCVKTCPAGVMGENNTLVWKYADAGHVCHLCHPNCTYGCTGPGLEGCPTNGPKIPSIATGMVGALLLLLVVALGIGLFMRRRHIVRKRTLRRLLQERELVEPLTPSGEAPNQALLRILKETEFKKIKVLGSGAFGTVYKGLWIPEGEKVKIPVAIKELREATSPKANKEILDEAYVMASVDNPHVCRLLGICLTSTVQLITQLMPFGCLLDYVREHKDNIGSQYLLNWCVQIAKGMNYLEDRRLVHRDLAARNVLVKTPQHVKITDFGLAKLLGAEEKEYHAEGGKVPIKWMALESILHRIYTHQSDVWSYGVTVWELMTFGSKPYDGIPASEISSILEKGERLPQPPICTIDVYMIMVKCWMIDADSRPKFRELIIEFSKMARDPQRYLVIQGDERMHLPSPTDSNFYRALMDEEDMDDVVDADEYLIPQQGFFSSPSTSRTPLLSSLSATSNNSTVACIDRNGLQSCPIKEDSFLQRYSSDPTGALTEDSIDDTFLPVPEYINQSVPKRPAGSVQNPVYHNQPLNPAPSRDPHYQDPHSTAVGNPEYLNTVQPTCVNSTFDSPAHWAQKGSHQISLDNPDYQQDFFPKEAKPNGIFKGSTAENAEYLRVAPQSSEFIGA
T1 sequence (P08069 31-736 limits assumed): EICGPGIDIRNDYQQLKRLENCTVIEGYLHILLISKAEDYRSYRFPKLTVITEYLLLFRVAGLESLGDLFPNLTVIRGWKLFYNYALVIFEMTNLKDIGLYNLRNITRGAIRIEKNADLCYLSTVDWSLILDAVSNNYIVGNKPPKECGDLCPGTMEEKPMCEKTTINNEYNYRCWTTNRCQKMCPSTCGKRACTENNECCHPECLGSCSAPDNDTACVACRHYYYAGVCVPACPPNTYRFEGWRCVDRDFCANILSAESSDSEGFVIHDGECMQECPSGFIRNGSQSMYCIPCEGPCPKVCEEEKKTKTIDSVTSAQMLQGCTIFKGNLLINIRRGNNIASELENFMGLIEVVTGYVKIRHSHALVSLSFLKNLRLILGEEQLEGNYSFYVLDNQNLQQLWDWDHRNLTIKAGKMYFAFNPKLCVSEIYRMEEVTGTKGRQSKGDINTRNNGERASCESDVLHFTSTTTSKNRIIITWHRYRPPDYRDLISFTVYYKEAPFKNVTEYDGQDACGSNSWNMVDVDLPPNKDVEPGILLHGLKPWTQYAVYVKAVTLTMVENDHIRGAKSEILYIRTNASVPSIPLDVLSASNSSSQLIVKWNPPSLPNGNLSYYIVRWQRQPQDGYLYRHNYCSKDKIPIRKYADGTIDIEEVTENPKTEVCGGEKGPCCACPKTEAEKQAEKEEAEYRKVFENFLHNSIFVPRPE
T1 sequence (P08069 741-1367 limits assumed): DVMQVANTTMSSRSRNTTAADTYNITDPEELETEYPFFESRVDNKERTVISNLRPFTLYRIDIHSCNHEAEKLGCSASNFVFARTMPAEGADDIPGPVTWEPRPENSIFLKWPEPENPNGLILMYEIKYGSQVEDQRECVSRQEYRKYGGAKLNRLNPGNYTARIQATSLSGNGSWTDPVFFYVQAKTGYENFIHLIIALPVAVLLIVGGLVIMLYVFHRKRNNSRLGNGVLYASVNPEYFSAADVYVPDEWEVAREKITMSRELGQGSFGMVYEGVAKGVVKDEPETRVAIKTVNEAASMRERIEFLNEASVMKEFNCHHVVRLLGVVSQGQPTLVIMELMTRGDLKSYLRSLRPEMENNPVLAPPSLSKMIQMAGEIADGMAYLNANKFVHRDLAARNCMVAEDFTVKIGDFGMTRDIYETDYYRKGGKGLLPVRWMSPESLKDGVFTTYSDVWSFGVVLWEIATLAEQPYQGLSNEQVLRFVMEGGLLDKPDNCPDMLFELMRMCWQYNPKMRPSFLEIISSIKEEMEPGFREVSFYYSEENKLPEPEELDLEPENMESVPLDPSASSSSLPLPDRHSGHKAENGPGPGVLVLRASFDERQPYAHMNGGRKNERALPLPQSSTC

SMILES	IC50 [1]	IC50 [2]	IC50 [3]	further results
O=C(Nc1cccc(-c2nc3sccn3c2-c2ccnc(Nc3cccc(N4CCOCC4)c3)n2)c1)c1c(F)cccc1F	6.2 nM	3800 nM	86 nM	–
O=C(Nc1cccc(-c2nc3sccn3c2-c2ccnc(Nc3ccc(N4CCOCC4)cc3)n2)c1)c1ccccc1	7.9 nM	1500 nM	4.8 nM	–
O=C(Nc1cccc(-c2nc3sccn3c2-c2ccnc(Nc3ccc(N4CCOCC4)cc3)n2)c1)c1c(F)cccc1F	1.9 nM	1300 nM	86 nM	–
O=C(CC1CCCCC1)Nc1cccc(-c2nc3sccn3c2-c2ccnc(Nc3ccc(N4CCOCC4)cc3)n2)c1	870 nM	1100 nM	1400 nM	–
O=C(CC1CCCC1)Nc1cccc(-c2nc3sccn3c2-c2ccnc(Nc3ccc(N4CCOCC4)cc3)n2)c1	660 nM	580 nM	1300 nM	–
O=C(Nc1ccccc1)Nc1cccc(-c2nc3sccn3c2-c2ccnc(Nc3ccc(N4CCOCC4)cc3)n2)c1	100 nM	590 nM	170 nM	–
O=C(Nc1cccc(-c2nc3sccn3c2-c2ccnc(Nc3ccc(N4CCOCC4)cc3)n2)c1)Oc1ccccc1	190 nM	450 nM	170 nM	–
CN(C)CCc1ccc(Nc2nccc(-c3c(-c4cccc(NC(=O)c5c(F)cccc5F)c4)nc4sccn34)n2)cc1	0.78 nM	210 nM	4.3 nM	IC50 [4]: 220 nM; IC50 [5]: 27 nM; IC50 [6]: 330 nM
CCN1CCN(c2ccc(Nc3nccc(-c4c(-c5cccc(NC(=O)c6c(F)cccc6F)c5)nc5sccn45)n3)cc2)CC1	0.96 nM	230 nM	14 nM	IC50 [4]: 50 nM; IC50 [5]: 69 nM; IC50 [6]: 200 nM
O=C(Nc1cccc(-c2nc3sccn3c2-c2ccnc(Nc3ccc4c(c3)CCNC4)n2)c1)c1c(F)cccc1F	2.3 nM	100 nM	7.2 nM	–
O=C(Cc1ccccc1)Nc1cccc(-c2nc3sccn3c2-c2ccnc(Nc3cccc(N4CCOCC4)c3)n2)c1	–	–	–	IC50 [7]: > 1000 nM; IC50 [8]: > 1000 nM; IC50 [9]: > 1000 nM; IC50 [10]: > 1000 nM; IC50 [11]: 890 nM; IC50 [12]: > 1000 nM; IC50 [13]: > 1000 nM
CN1CCc2cc(Nc3nccc(-c4c(-c5cccc(NC(=O)Cc6ccccc6)c5)nc5sccn45)n3)ccc2C1	57 nM	81 nM	160 nM	–
CCN1CCN(c2ccc(Nc3nccc(-c4c(-c5cccc(NC(=O)Cc6ccccc6)c5)nc5sccn45)n3)cc2)CC1	–	52 nM	170 nM	IC50 [5]: 310 nM; IC50 [6]: 41 nM
CN(C)CCc1cccc(Nc2nccc(-c3c(-c4cccc(NC(=O)Cc5ccccc5)c4)nc4sccn34)n2)c1	24 nM	–	150 nM	–
O=C(Cc1ccccc1)Nc1cccc(-c2nc3sccn3c2-c2ccnc(Nc3ccc4c(c3)CCNC4)n2)c1	6.4 nM	27 nM	55 nM	IC50 [4]: 1000 nM; IC50 [5]: 120 nM; IC50 [6]: 180 nM
O=C(Nc1cccc(-c2nc3sccn3c2-c2ccncc2)c1)c1ccccc1Cl	240 nM	> 12500 nM	240 nM	–
O=C(Nc1cccc(-c2nc3sccn3c2-c2ccnc(Nc3ccccc3)n2)c1)c1ccccc1	55 nM	> 12500 nM	6.3 nM	–
O=[N+]([O-])c1cccc(-c2nc3sccn3c2-c2ccnc(Nc3ccccc3)n2)c1	–	> 12500 nM	6000 nM	–
Nc1nc2ccc(-c3c(-c4cccc(NC(=O)c5ccccc5Cl)c4)nc4sccn34)cc2[nH]1	> 12500 nM	> 12500 nM	> 12500 nM	–
O=C(Nc1cccc(-c2nc3sccn3c2-c2ccnc(Nc3ccccc3)n2)c1)c1ccccc1Cl	83 nM	> 12500 nM	35 nM	–
